Measurements as given in PMC7224104 (Molecular Diversity, 2020).

Each compound was assayed against T1, porcine liver COMT (Sus scrofa, UniProt Q99028) (assay: biochemical).
T1 sequence (Q99028 1-186): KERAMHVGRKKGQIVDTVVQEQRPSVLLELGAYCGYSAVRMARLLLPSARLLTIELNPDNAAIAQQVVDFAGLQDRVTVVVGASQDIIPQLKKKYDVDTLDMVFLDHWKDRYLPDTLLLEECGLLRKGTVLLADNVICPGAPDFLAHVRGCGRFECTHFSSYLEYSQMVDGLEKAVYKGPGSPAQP

| SMILES | IC50 |
| --- | --- |
| Cc1c(O)c(=O)ccn1C1CCCCC1 [Compound 6, 1-Cyclohexyl-3-hydroxy-2-methylpyridin-4-one] | 12.2 ± 3.06 µM |
| Cc1c(O)c(=O)ccn1C1CCCC1 [Compound 7, 1-Cyclopentyl-3-hydroxy-2-methylpyridin-4-one] | 19.8 ± 5.86 µM |
| Cc1c(O)c(=O)ccn1-c1ccc(Cl)cc1 [Compound 9, 1-(4-Chlorophenyl)-3-hydroxy-2-methylpyridin-4-one] | 9.31 ± 2.94 µM |
| Cc1c(O)c(=O)ccn1Cc1ccccc1 [Compound 2, 1-Benzyl-3-hydroxy-2-methylpyridin-4-one] | 4.55 ± 0.545 µM |
| Cc1c(O)c(=O)ccn1CCCc1ccccc1 [Compound 4, 3-Hydroxy-2-methyl-1-(3-phenylpropyl)pyridin-4-one] | 18.4 ± 0.974 µM |
| Cc1c(O)c(=O)ccn1CCc1ccccc1 [Compound 3, 3-Hydroxy-2-methyl-1-(2-phenylethyl)pyridin-4-one] | 15 ± 2.1 µM |

Continued by falling IC50, values first:

| IC50 | SMILES |
| --- | --- |
| 11.2 ± 1.01 µM | Cc1c(O)c(=O)ccn1-c1cccc(Cl)c1 [Compound 8, 1-(3-Chlorophenyl)-3-hydroxy-2-methylpyridin-4-one] |
| 10.9 ± 1.06 µM | Cc1c(O)c(=O)ccn1-c1ccccc1 [Compound 1, 3-Hydroxy-2-methyl-1-phenylpyridin-4-one] |
| 9.05 ± 1.25 µM | Cc1c(O)c(=O)ccn1CCCCc1ccccc1 [Compound 5, 3-Hydroxy-2-methyl-1-(4-phenylbutyl)pyridin-4-one] |
| 5.76 ± 0.664 µM | Cc1ccc(Cn2ccc(=O)c(O)c2C)cc1 [Compound 10, 3-Hydroxy-2-methyl-1-(4-methylbenzyl)pyridin-4-one] |
| 0.0068 µM | Cc1ccc(C(=O)c2cc(O)c(O)c([N+](=O)[O-])c2)cc1 [Tolcapone, reference compound] |
